Biological target: T1, C1r proenzyme (Homo sapiens, UniProt P00736)
T1 construct: purchased Complement Technology (CompTech)
T1 sequence (P00736 18-705): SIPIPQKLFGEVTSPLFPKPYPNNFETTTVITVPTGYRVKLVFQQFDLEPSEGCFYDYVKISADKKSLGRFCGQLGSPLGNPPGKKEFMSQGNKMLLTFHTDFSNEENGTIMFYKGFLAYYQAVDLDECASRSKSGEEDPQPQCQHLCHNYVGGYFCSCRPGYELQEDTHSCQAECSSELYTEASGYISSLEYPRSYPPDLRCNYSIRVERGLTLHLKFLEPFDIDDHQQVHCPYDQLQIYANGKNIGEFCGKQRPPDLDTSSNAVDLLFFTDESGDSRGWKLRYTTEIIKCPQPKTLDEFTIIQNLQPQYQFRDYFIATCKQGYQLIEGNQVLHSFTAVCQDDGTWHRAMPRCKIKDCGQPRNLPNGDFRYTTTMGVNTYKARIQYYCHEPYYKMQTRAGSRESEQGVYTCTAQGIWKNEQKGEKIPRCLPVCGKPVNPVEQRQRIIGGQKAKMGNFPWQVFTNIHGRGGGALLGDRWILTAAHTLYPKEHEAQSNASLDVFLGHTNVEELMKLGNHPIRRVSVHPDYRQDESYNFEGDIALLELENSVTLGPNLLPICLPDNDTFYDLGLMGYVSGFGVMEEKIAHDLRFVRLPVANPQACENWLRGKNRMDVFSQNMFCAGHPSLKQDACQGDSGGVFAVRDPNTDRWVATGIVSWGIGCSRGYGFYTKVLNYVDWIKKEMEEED
Experiment: C1r proenzyme activation (autoactivation) assay with Z-Gly-Arg-sBzl substrate
Format: biochemical
Details: 10 mM compound, 37 °C, 1 h
Description: Figure 6 CMP-1696 structure activity relationship. (A) CMP-1696 was redocked onto C1r-CCP2-SP (PDB: 1MD8, grey surface representation) and the top nine scored poses are shown. All CMP-1696 poses dock into the S1 subsite (cyan) near the catalytic triad (blue). (B) C1r autoactivation assay. C1r proenzyme undergoes time-dependent autoactivation at 37 °C. Autoactivation was measured using a synthetic substrate for C1r enzyme. The reaction progress of vehicle control (dashed line) or in the presence of 10 mM CMP-1696 (solid line) was monitored for 1 h. (C) Molecular dynamics (MD) simulations of CMP-1696/C1r-CCP2-SP. Root mean square deviation (RMSD) in nm for each of the CMP-1696 poses measured over the 10 ns molecular dynamics simulation. (D) MM/PBSA energy calculations for each pose in the 10 ns MD simulations indicate that pose 1 is the most energetically favorable. […]
Individual stock solutions of 1 mM of Z-Gly-Arg-sBzl (MP Biomedicals, Irvine, CA, USA) and 5,5′-Dithiobis-(2-nitrobenzoic acid) (DTNB) (Sigma-Aldrich, St. Louis, MO, USA) were made by dissolving powder in DMSO to give 10 mM stocks of each compound, which were then diluted to 1 mM in assay buffer (20 mM HEPES pH 7.3, 140 mM NaCl, 0.005% (v/v) Tween-20, 2 mM CaCl2). […] Plates were read at 450 nm using an EnSight multimode plate reader (Perkin-Elmer, Waltham, MA, USA) and the reaction progress was tracked for 1 h.

Structure (SMILES): COCc1nc(-c2ccc(OC3CNC3)cc2)no1 [CMP-1696]
- inhibition of autocatalysis of C1r proenzyme: directly inhibited

Reference: PMC7504721, “Targeting the Initiator Protease of the Classical Pathway of Complement Using Fragment-Based Drug Discovery” (Molecules, 2020)
